Test results taken from PubChem BioAssay (NCI).
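48-hour exposure; five concentrations; linearly interpolated endpoints. Here, GI50 denotes the concentration required for 50% inhibition of growth. TGI: total growth inhibition.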

Key:
Assay in all cases: NCI anticancer screen, dose series, 48 h
HT29 colon = test system: HT29 colon
RXF 393 renal = test system: RXF 393 renal
SK-MEL-5 melanoma = test system: SK-MEL-5 melanoma
NCI/ADR-RES ovarian = test system: NCI/ADR-RES ovarian
SR leukemia = test system: SR leukemia
HCT-116 colon = test system: HCT-116 colon
HCC-2998 colon = test system: HCC-2998 colon
UACC-257 melanoma = test system: UACC-257 melanoma
RPMI-8226 leukemia = test system: RPMI-8226 leukemia
NCI-H522 lung = test system: NCI-H522 lung

Compound | GI50 (HT29 colon) | TGI (HT29 colon) | GI50 (RXF 393 renal) | TGI (RXF 393 renal) | GI50 (SK-MEL-5 melanoma) | TGI (SK-MEL-5 melanoma) | GI50 (NCI/ADR-RES ovarian) | TGI (NCI/ADR-RES ovarian) | GI50 (SR leukemia) | TGI (SR leukemia) | GI50 (HCT-116 colon) | TGI (HCT-116 colon) | GI50 (HCC-2998 colon) | TGI (HCC-2998 colon) | GI50 (UACC-257 melanoma) | TGI (UACC-257 melanoma) | TGI (RPMI-8226 leukemia) | TGI (NCI-H522 lung) | GI50 (RPMI-8226 leukemia)
O=S(=O)(CCN1CCOCC1)Nc1cc(-c2ccc3ncnc(Nc4ccc(F)c(Cl)c4)c3c2)cnc1Cl | 0.674 µM | 17.7 µM | 0.239 µM | 1.35 µM | 0.313 µM | 1.58 µM | 5.63 µM | > 100 µM | 0.799 µM | 6.96 µM | 1.38 µM | 19.2 µM | 1.05 µM | 7.73 µM | 0.498 µM | 8.12 µM | – | – | –
Cc1ccc(-c2nc3ccccc3c(=O)n2NCC2(O)OCC(O)C(O)C2O)cc1 (centres undefined) | – | > 100 µM | – | > 100 µM | – | > 100 µM | – | – | – | > 100 µM | – | > 100 µM | – | – | – | > 100 µM | > 100 µM | > 100 µM | –
CCOC(=O)C(=O)Nc1nc2c(OCC)cccc2s1 | – | > 100 µM | – | > 100 µM | – | > 100 µM | – | – | – | – | – | > 100 µM | – | > 100 µM | – | > 100 µM | > 100 µM | > 100 µM | –
C=C(CO)CC(O)c1cc(OC)ccc1OC (centres undefined) | – | > 100 µM | – | > 100 µM | – | > 100 µM | – | – | – | – | – | – | – | > 100 µM | – | > 100 µM | > 100 µM | > 100 µM | –
N#Cc1ccc(Cc2ccccn2)cc1Cl | – | > 100 µM | – | > 100 µM | – | > 100 µM | – | – | – | > 100 µM | – | – | – | – | – | > 100 µM | – | > 100 µM | –
CCC[CH2][Sn]([CH2]CCC)([O]c1cccc2cccnc12)[O]c1cccc2cccnc12 | 0.484 µM | 1.72 µM | – | – | 0.192 µM | 0.409 µM | – | – | – | – | 0.189 µM | 0.385 µM | 0.36 µM | 0.842 µM | – | – | – | – | –
O=C(Nc1cccc2c1C(=O)c1c(NC(=O)c3ccccc3)ccc(Nc3cccc4c3C(=O)c3ccccc3C4=O)c1C2=O)c1ccccc1 | – | – | – | > 100 µM | – | > 100 µM | – | – | – | > 100 µM | – | > 100 µM | – | > 100 µM | – | > 100 µM | > 100 µM | > 100 µM | –
O=c1[nH]c2ccccc2c2nc3ccccc3n12 | – | > 100 µM | – | > 100 µM | – | > 100 µM | – | > 100 µM | – | – | – | > 100 µM | – | > 100 µM | – | > 100 µM | > 100 µM | 28.2 µM | –
BrC(Br)=C1C(=C(Br)Br)C(Br)C1Br (centres undefined) | – | 1.49 µM | – | 0.948 µM | – | 2.04 µM | – | – | – | 1.54 µM | – | 1.1 µM | – | 0.777 µM | – | 5.3 µM | 1.14 µM | 0.299 µM | –
O=C(/C=C\c1cccc2ccccc12)c1ccc(F)cc1 | – | 36.6 µM | – | – | – | 33 µM | – | – | – | – | – | 26.8 µM | – | 35.8 µM | – | 34.7 µM | – | 40.2 µM | –
COc1ccc(/C=C2\CN(C(=O)C(Cl)Cl)C/C(=C\c3ccc(OC)cc3)C2=O)cc1 | – | – | 1.11 µM | 2.37 µM | – | – | 2 µM | 15.1 µM | 0.357 µM | > 100 µM | 0.234 µM | 0.653 µM | 1.02 µM | 2.2 µM | – | – | – | – | –
CCOC(=O)C1SC(=Nc2ccc(OC)c(OC)c2)N=C1C (centres undefined) | – | 34.8 µM | – | > 100 µM | – | 37.2 µM | – | – | – | – | – | > 100 µM | – | > 100 µM | – | > 100 µM | – | 32.3 µM | –
COc1ccc2c(c1)c(-c1nc(-c3c[nH]c4ncccc34)cs1)cn2CCCN1CCCCC1 | 1.81 µM | 3.53 µM | 1.59 µM | 3.2 µM | – | – | 1.72 µM | 3.44 µM | – | – | – | – | 1.78 µM | 3.42 µM | 1.96 µM | 3.69 µM | 4.8 µM | – | 2.19 µM
